From paper PMC8586704 (Frontiers in Chemistry, 2021)
pIC50: −log10 of the molar value. Converted amounts (≈) assume the structure as drawn. Read-outs that look alike come from different tables or passages of the source. Starred links: 1 amine or outer side, 2 acyl side, 3 side chain; linkers in the order of their positions; H or OH if unused. Non-standard residues stand in square brackets, D forms with d. Residues, ends and D or L forms follow the SMILES beside them. Groups on a side chain read outwards from the residue. *: point of attachment. X8 = O=C(CCc1c[nH]c2ccccc12)Oc1ccc(C[C@H](N[*:1])C(=O)[*:2])cc1[N+](=O)[O-]; X10 = CC[C@H](C)[C@H](NC(=O)[C@@H](C)C[C@@H](C(=O)[*:2])N(C)[*:1])C(=O)OC; X13 = C[C@@H](C[C@@H](C(=O)[*:2])N(C)[*:1])C(=O)NCc1ccc(C(F)(F)F)cc1; X4 = COC(=O)[C@H](CCSC)NC(=O)[C@@H](C)C[C@@H](C(=O)[*:2])N(C)[*:1]; Trp(1-(1,1-Me2-allyl)) = C=CC(C)(C)n1cc(C[C@H](N)C(=O)O)c2ccccc21; X5 = O=C(Oc1ccc(C[C@H](N[*:1])C(=O)[*:2])cc1[N+](=O)[O-])c1cnccn1; NMeGlu(4S-Me) = C[C@@H](C[C@@H](C(=O)[*:2])N(C)[*:1])C(=O)[*:3]; X14 = C[C@@H](C[C@@H](C(=O)[*:2])N(C)[*:1])C(=O)NCc1ccc(Cl)cc1; X9 = CSCCC(=O)Oc1ccc(C[C@H](N[*:1])C(=O)[*:2])cc1[N+](=O)[O-]; X1 = C[C@@H](C[C@@H](C(=O)[*:2])N(C)[*:1])C(=O)NCc1ccc(F)cc1; Tyr(3-NO2) = N[C@@H](Cc1ccc(O)c([N+](=O)[O-])c1)C(=O)O; X7 = O=C1O[C@@H](CN*)CN1c1ccc(N2CCOCC2)c(F)c1; Gly(E-crotyl) = C/C=C/C[C@H](N)C(=O)O; NMeL = CN[C@@H](CC(C)C)C(=O)O

Key:
[1] = tested on: M. tuberculosis H37Rv; test: Antitubercular activity assay, broth dilution, auto-luminescent strain; assay type: cell-based, Mycobacterium tuberculosis
[2] = tested on: MCF-7; test: cells; assay type: cell-based; conditions: Homo sapiens, MCF7; breast adenocarcinoma cell line
[3] = tested on: HeLa; test: cells; assay type: cell-based; conditions: Homo sapiens, cervical carcinoma cell line
[4] = tested on: HepG2; test: cells; assay type: cell-based; conditions: Homo sapiens, hepatocellular carcinoma cell line
[5] = tested on: A549; test: Cytotoxicity assay (CCK-8); assay type: cell-based; conditions: Homo sapiens, lung cancer cell line
[6] = tested on: HCT116; test: cells; assay type: cell-based; conditions: Homo sapiens, HCT-116; colon cancer cell line
[7] = tested on: L02; test: cells; assay type: cell-based; conditions: normal human hepatic cell line
[8] = tested on: Huvec-12; test: Cytotoxicity assay (CCK-8); assay type: cell-based; conditions: normal human umbilical vein endothelial cell line
[9] = Mycobacterium tuberculosis, H37RV, Day 3rd, read-out: MICs against H37Rv, Day 3rd
[10] = Mycobacterium tuberculosis, H37RV, Day 7th, read-out: MICs against H37Rv, Day 7th
[11] = Mycobacterium tuberculosis, H37RV, Day 14th, read-out: MICs against H37Rv, Day 14th
[12] = Day 3rd, read-out: MICs against H37Rv, Day 3rd
[13] = Day 14th, read-out: MICs against H37Rv, Day 14th
[14] = Mycobacterium tuberculosis, H37RV, read-out: MICs against H37Rv, Day 3rd
[15] = Mycobacterium tuberculosis, H37RV, read-out: MICs against H37Rv, Day 7th
[16] = Mycobacterium tuberculosis, H37RV, read-out: MICs against H37Rv, Day 14th

SMILES	MIC [1, 9]	MIC [1, 10]	MIC [1, 11]	pIC50 [2]	pIC50 [3]	pIC50 [4]	pIC50 [5]	pIC50 [6]	pIC50 [7]	pIC50 [8]	MIC [1, 12]	MIC [1, 13]	MIC [1, 14]	MIC [1, 15]	MIC [1, 16]	increase of anti-TB activity compared with ilamycin F ([1]; Day 3rd)	more potent MIC value than that of 9 and 11 ([1]; Day 14th)
C=CC(C)(C)n1cc(C[C@@H]2NC(=O)[C@H](C/C=C/C)NC(=O)[C@H](CC(C)C)NC(=O)[C@H](C[C@H](C)C(=O)N[C@H](C(=O)OC)[C@@H](C)CC)N(C)C(=O)[C@H](C)NC(=O)[C@H](Cc3ccc(O)c([N+](=O)[O-])c3)NC(=O)[C@H](CC(C)C)N(C)C2=O)c2ccccc21 [Compound 3, ilamycin NJL3] (cyclo(A[X10]L[Gly(E-crotyl)][Trp(1-(1,1-Me2-allyl))][NMeL][Tyr(3-NO2)]))	6.8 µM (≈ 7.95 µg/mL)	6.8 µM (≈ 7.95 µg/mL)	6.8 µM (≈ 7.95 µg/mL)	< 4.30	4.84	< 4.30	< 4.30	< 4.30	4.92	< 4.30							
C=CC(C)(C)n1cc(C[C@@H]2NC(=O)[C@H](C/C=C/C)NC(=O)[C@H](CC(C)C)NC(=O)[C@H](C[C@H](C)C(=O)N[C@@H](Cc3ccc(O)cc3)C(=O)OC)N(C)C(=O)[C@H](C)NC(=O)[C@H](Cc3ccc(O)c([N+](=O)[O-])c3)NC(=O)[C@H](CC(C)C)N(C)C2=O)c2ccccc21 [Compound 8, ilamycin NJL8] (cyclo(A[NMeGlu(4S-Me)]([Tyr-OMe])L[Gly(E-crotyl)][Trp(1-(1,1-Me2-allyl))][NMeL][Tyr(3-NO2)]))	1.6 to 3.5 µM (≈ 1.95 to 4.27 µg/mL)	1.6 µM (≈ 1.95 µg/mL)	1.6 to 1.7 µM (≈ 1.95 to 2.07 µg/mL)	< 4.30	< 4.30	< 4.30	< 4.30	< 4.30	< 4.30	< 4.30	1.6 µM (≈ 1.95 µg/mL)	1.6 µM (≈ 1.95 µg/mL)					
C=CC(C)(C)n1cc(C[C@@H]2NC(=O)[C@H](C/C=C/C)NC(=O)[C@H](CC(C)C)NC(=O)[C@H](C[C@H](C)C(=O)NC[C@H]3CN(c4ccc(N5CCOCC5)c(F)c4)C(=O)O3)N(C)C(=O)[C@H](C)NC(=O)[C@H](Cc3ccc(O)c([N+](=O)[O-])c3)NC(=O)[C@H](CC(C)C)N(C)C2=O)c2ccccc21 [Compound 14, ilamycin NJL14] (cyclo(A[NMeGlu(4S-Me)](X7)L[Gly(E-crotyl)][Trp(1-(1,1-Me2-allyl))][NMeL][Tyr(3-NO2)]))				< 4.30	< 4.30	< 4.30	< 4.30	< 4.30	< 4.30	< 4.30			48.5 µM (≈ 64 µg/mL)	48.5 µM (≈ 64 µg/mL)	48.5 µM (≈ 64 µg/mL)		
C=CC(C)(C)n1cc(C[C@@H]2NC(=O)[C@H](C/C=C/C)NC(=O)[C@H](CC(C)C)NC(=O)[C@H](C[C@H](C)C(=O)O)N(C)C(=O)[C@H](C)NC(=O)[C@H](Cc3ccc(OC(=O)CCc4c[nH]c5ccccc45)c([N+](=O)[O-])c3)NC(=O)[C@H](CC(C)C)N(C)C2=O)c2ccccc21 [Compound 16, ilamycin NJL16] (cyclo(A[NMeGlu(4S-Me)]L[Gly(E-crotyl)][Trp(1-(1,1-Me2-allyl))][NMeL][X8]))	26.4 µM (≈ 32 µg/mL)	26.4 µM (≈ 32 µg/mL)	26.4 µM (≈ 32 µg/mL)	< 4.30	< 4.30	< 4.30	< 4.30	< 4.30	< 4.30	< 4.30							
C=CC(C)(C)n1cc(C[C@@H]2NC(=O)[C@H](C/C=C/C)NC(=O)[C@H](CC(C)C)NC(=O)[C@H](C[C@H](C)C(=O)N[C@@H](CCSC)C(=O)OC)N(C)C(=O)[C@H](C)NC(=O)[C@H](Cc3ccc(O)c([N+](=O)[O-])c3)NC(=O)[C@H](CC(C)C)N(C)C2=O)c2ccccc21 [Compound 2, ilamycin NJL2] (cyclo(A[X4]L[Gly(E-crotyl)][Trp(1-(1,1-Me2-allyl))][NMeL][Tyr(3-NO2)]))	6.7 µM (≈ 7.96 µg/mL)	6.7 µM (≈ 7.96 µg/mL)	3.4 µM (≈ 4.04 µg/mL)	< 4.30	< 4.30	< 4.30	< 4.30	< 4.30	< 4.30	< 4.30							
C=CC(C)(C)n1cc(C[C@@H]2NC(=O)[C@H](C/C=C/C)NC(=O)[C@H](CC(C)C)NC(=O)[C@H](C[C@H](C)C(=O)O)N(C)C(=O)[C@H](C)NC(=O)[C@H](Cc3ccc(OC(=O)c4cnccn4)c([N+](=O)[O-])c3)NC(=O)[C@H](CC(C)C)N(C)C2=O)c2ccccc21 [Compound 15, ilamycin NJL15] (cyclo(A[NMeGlu(4S-Me)]L[Gly(E-crotyl)][Trp(1-(1,1-Me2-allyl))][NMeL][X5]))	27.9 µM (≈ 32 µg/mL)	27.9 µM (≈ 32 µg/mL)	27.9 µM (≈ 32 µg/mL)	< 4.30	< 4.30	< 4.30	< 4.30	< 4.30	< 4.30	< 4.30							
C=CC(C)(C)n1cc(C[C@@H]2NC(=O)[C@H](C/C=C/C)NC(=O)[C@H](CC(C)C)NC(=O)[C@H](C[C@H](C)C(=O)NCc3ccc(C(F)(F)F)cc3)N(C)C(=O)[C@H](C)NC(=O)[C@H](Cc3ccc(O)c([N+](=O)[O-])c3)NC(=O)[C@H](CC(C)C)N(C)C2=O)c2ccccc21 [Compound 12, ilamycin NJL12] (cyclo(A[X13]L[Gly(E-crotyl)][Trp(1-(1,1-Me2-allyl))][NMeL][Tyr(3-NO2)]))				< 4.30	< 4.30	< 4.30	< 4.30	< 4.30	< 4.30	< 4.30			> 100 µM	> 100 µM	> 100 µM		
C=CC(C)(C)n1cc(C[C@@H]2NC(=O)[C@H](C/C=C/C)NC(=O)[C@H](CC(C)C)NC(=O)[C@H](C[C@H](C)C(=O)N[C@@H](Cc3c[nH]c4ccccc34)C(=O)OC)N(C)C(=O)[C@H](C)NC(=O)[C@H](Cc3ccc(O)c([N+](=O)[O-])c3)NC(=O)[C@H](CC(C)C)N(C)C2=O)c2ccccc21 [Compound 6, ilamycin NJL6] (cyclo(A[NMeGlu(4S-Me)]([Trp-OMe])L[Gly(E-crotyl)][Trp(1-(1,1-Me2-allyl))][NMeL][Tyr(3-NO2)]))	1.6 to 3.5 µM (≈ 1.99 to 4.35 µg/mL)	1.7 µM (≈ 2.11 µg/mL)	1.6 to 1.7 µM (≈ 1.99 to 2.11 µg/mL)	< 4.30	< 4.30	< 4.30	< 4.30	< 4.30	< 4.30	< 4.30	1.7 µM (≈ 2.11 µg/mL)	1.7 µM (≈ 2.11 µg/mL)					
C=CC(C)(C)n1cc(C[C@@H]2NC(=O)[C@H](C/C=C/C)NC(=O)[C@H](CC(C)C)NC(=O)[C@H](C[C@H](C)C(=O)O)N(C)C(=O)[C@H](C)NC(=O)[C@H](Cc3ccc(OC(=O)CCSC)c([N+](=O)[O-])c3)NC(=O)[C@H](CC(C)C)N(C)C2=O)c2ccccc21 [Compound 18, ilamycin NJL18] (cyclo(A[NMeGlu(4S-Me)]L[Gly(E-crotyl)][Trp(1-(1,1-Me2-allyl))][NMeL][X9]))	28 µM (≈ 32 µg/mL)	28 µM (≈ 32 µg/mL)	28 µM (≈ 32 µg/mL)	< 4.30	< 4.30	< 4.30	< 4.30	< 4.30	< 4.30	< 4.30							
C=CC(C)(C)n1cc(C[C@@H]2NC(=O)[C@H](C/C=C/C)NC(=O)[C@H](CC(C)C)NC(=O)[C@H](C[C@H](C)C(=O)N[C@@H](Cc3ccccc3)C(=O)OC)N(C)C(=O)[C@H](C)NC(=O)[C@H](Cc3ccc(O)c([N+](=O)[O-])c3)NC(=O)[C@H](CC(C)C)N(C)C2=O)c2ccccc21 [Compound 7, ilamycin NJL7] (cyclo(A[NMeGlu(4S-Me)]([Phe-OMe])L[Gly(E-crotyl)][Trp(1-(1,1-Me2-allyl))][NMeL][Tyr(3-NO2)]))	26.6 µM (≈ 32 µg/mL)	13.3 µM (≈ 16 µg/mL)	6.6 µM (≈ 7.94 µg/mL)	< 4.30	< 4.30	< 4.30	< 4.30	< 4.30	< 4.30	< 4.30							
C=CC(C)(C)n1cc(C[C@@H]2NC(=O)[C@H](C/C=C/C)NC(=O)[C@H](CC(C)C)NC(=O)[C@H](C[C@H](C)C(=O)NCc3ccc(Cl)cc3)N(C)C(=O)[C@H](C)NC(=O)[C@H](Cc3ccc(O)c([N+](=O)[O-])c3)NC(=O)[C@H](CC(C)C)N(C)C2=O)c2ccccc21 [Compound 11, ilamycin NJL11] (cyclo(A[X14]L[Gly(E-crotyl)][Trp(1-(1,1-Me2-allyl))][NMeL][Tyr(3-NO2)]))	3.4 µM (≈ 3.96 µg/mL)	3.4 µM (≈ 3.96 µg/mL)	3.4 µM (≈ 3.96 µg/mL)	< 4.30	< 4.30	< 4.30	< 4.30	< 4.30	< 4.30	< 4.30							
C=CC(C)(C)n1cc(C[C@@H]2NC(=O)[C@H](C/C=C/C)NC(=O)[C@H](CC(C)C)NC(=O)[C@H](C[C@H](C)C(=O)NCc3ccc(F)cc3)N(C)C(=O)[C@H](C)NC(=O)[C@H](Cc3ccc(O)c([N+](=O)[O-])c3)NC(=O)[C@H](CC(C)C)N(C)C2=O)c2ccccc21 [Compound 10, ilamycin NJL10] (cyclo(A[X1]L[Gly(E-crotyl)][Trp(1-(1,1-Me2-allyl))][NMeL][Tyr(3-NO2)]))	1.6 to 3.5 µM (≈ 1.84 to 4.02 µg/mL)	1.7 µM (≈ 1.95 µg/mL)	1.6 to 1.7 µM (≈ 1.84 to 1.95 µg/mL)	< 4.30	< 4.30	< 4.30	< 4.30	< 4.30	< 4.30	< 4.30	1.7 µM (≈ 1.95 µg/mL)	1.7 µM (≈ 1.95 µg/mL)				9–19 fold	2 fold
